Common to all, as to format: biochemical
Assay [1] concerns the target T1, cyclin A-Cdk2 (Homo sapiens, UniProt P24941).
T1 construct: made in house; host or cells: insect cell Sf9 (baculovirus)
Nature of the assay: Cdk2 inhibitory action: cyclin A-Cdk2 kinase activity. Particulars: cyclin A-Cdk2, 50 μM ATP. The text has this: In the same manner as in the case of cyclin D2-Cdk4, the cDNA of Cdk2, and the cDNA of a fusion protein of cyclin A, an activating factor of Cdk2, and glutathione S-transferase, were integrated into a baculovirus expression vector to prepare a recombinant baculovirus. This was co-transfected into insect cell Sf9 to express an active complex of the cyclin A/glutathione S-transferase fusion protein-Cdk2 at a high level. The cells were recovered and solubilized, then the active complex was adsorbed onto Glutathione Sepharose, and a cyclin A-Cdk2 complex was recovered using Precision Protease and was purified by HPLC column chromatography.
For the measurement of the activity of cyclin A-Cdk2, a synthetic peptide (Ala-Lys-Ala-Lys-Lys-Thr-Pro-Lys-Lys-Ala-Lys-Lys) was used as the substrate.
(§1) The reaction was performed by partially modifying the method of Kitagawa et al. [Oncogene, Vol. 7, 1067-1074 (1992)]. The volume of the reaction solution was 21.1 μL, and to the R buffer, purified cyclin A-Cdk2, 0.01 mg/mL of the substrate peptide, 50 μM of non-labeled adenosine triphosphate (ATP), and 1 μCi of [γ-33P]-labeled ATP (2000 to 4000 Ci/mmole) were added to react at 30° C. for 30 minutes. Then, 10 μL of 350 mM phosphate buffer was added to the reaction system to terminate the reaction. The substrate peptide was adsorbed onto P81 paper filter on a 96-well plate, and then washed several times with 75 mM phosphate buffer. The radioactivity of the substrate peptide was measured with a liquid scintillation counter.
(§2) Addition of the compound according to the invention to the reaction system was carried out by first preparing a dilution series of solutions of the compound in dimethylsulfoxide (DMSO), and adding 1.1 μL of the dilutions. A control was provided by adding 1.1 μL of DMSO to the reaction system.
A representative compound of the compounds according to the invention was selected, and the IC50 value of this compound for the cyclin A-Cdk2 activity was determined.

In assay [2] the target is T2, cyclin B-Cdk1 (Homo sapiens, UniProt P06493).
T2 construct: made in house; host or cells: insect cell Sf9 (baculovirus)
Nature of the assay: Cdk1 (Cdc2) inhibitory action: cyclin B-Cdk1 kinase activity. As to conditions: cyclin B-Cdk1, 50 μM ATP.
Description: The cDNA of Cdk1, and the cDNA of a fusion protein of cyclin B, an activating factor of Cdk1, and glutathione S-transferase, were integrated into a baculovirus expression vector to prepare a recombinant baculovirus. This was co-transfected into insect cell Sf9 to express an active complex of the cyclin B/glutathione S-transferase fusion protein-Cdk1 at a high level. The cells were recovered and solubilized, then the active complex was adsorbed onto Glutathione Sepharose, and a cyclin B-Cdk1 active complex was recovered using Precision Protease and was purified by HPLC column chromatography.
For the measurement of the activity of cyclin B-Cdk1, a synthetic peptide (Ala-Lys-Ala-Lys-Lys-Thr-Pro-Lys-Lys-Ala-Lys-Lys) was used as the substrate.
as §1, with “B-Cdk1, 100 μM” for “A-Cdk2, 0.01 mg/mL”
as §2
A representative compound of the compounds according to the invention was selected, and the IC50 value of this compound for the cyclin B-Cdk1 activity was determined.

The target in assay [3] is T3, cyclin D2-Cdk4 (Homo sapiens, UniProt P11802).
T3 construct: made in house; host or cells: insect cell Sf9 (baculovirus)
Nature of the assay: Cdk4 inhibitory action: cyclin D2-Cdk4 kinase activity, 33P-ATP, RB peptide substrate. As to conditions: cyclin D2-Cdk4, 50 μM ATP.
Description: First, the cDNA of Cdk4, and the cDNA of a fusion protein of cyclin D2, an activating factor of Cdk4, and glutathione S-transferase, were integrated into a baculovirus expression vector to prepare a recombinant baculovirus. This was co-transfected into insect cell Sf9 to express an active complex of the cyclin D2/glutathione S-transferase fusion protein-Cdk4 at a high level. The cells were recovered and solubilized, then the active complex was adsorbed onto Glutathione Sepharose, and a cyclin D2-Cdk4 complex was recovered using Precision Protease and was purified by HPLC column chromatography [EMBO J., Vol. 15, 7060-7069 (1996)].
For the measurement of the activity of cyclin D2-Cdk4, a synthetic peptide (Arg-Pro-Pro-Thr-Leu-Ser-Pro-Ile-Pro-His-Ile-Pro-Arg) corresponding to amino acid residue No. 775-787 of RB protein was used as the substrate [EMBO J., Vol. 15, 7060-7069 (1996)].
as §1, with “and” for “and to”, “the composition of the reaction buffer (R buffer) was 20 mM Tris-hydrochloric acid buffer (pH 7.4)/10 mM magnesium chloride/4.5 mM 2-mercaptoethanol/1 mM ethylene glycol bis(β-aminoethyl ether)-N,N,N′,N′-tetraacetic acid (EGTA). To this reaction” for “the R”, “cyclin D2-Cdk4, 100 μM” for “cyclin A-Cdk2, 0.01 mg/mL”, “for 45” for “for 30”, “counter. The [γ-33P]-labeled ATP was purchased from Daiichi Pure Chemicals Co., Ltd.” for “counter.”
Addition of the test compound to the reaction system was carried out by first preparing a dilution series of solutions of the compound in dimethylsulfoxide (DMSO), and adding 1.1 μL of the dilutions. A control was provided by adding 1.1 μL of DMSO to the reaction system.
A representative compound of the compounds according to the invention was selected, and the IC50 value of this compound for the cyclin D2-Cdk4 activity was determined.

T2 sequence (P06493 whole entry): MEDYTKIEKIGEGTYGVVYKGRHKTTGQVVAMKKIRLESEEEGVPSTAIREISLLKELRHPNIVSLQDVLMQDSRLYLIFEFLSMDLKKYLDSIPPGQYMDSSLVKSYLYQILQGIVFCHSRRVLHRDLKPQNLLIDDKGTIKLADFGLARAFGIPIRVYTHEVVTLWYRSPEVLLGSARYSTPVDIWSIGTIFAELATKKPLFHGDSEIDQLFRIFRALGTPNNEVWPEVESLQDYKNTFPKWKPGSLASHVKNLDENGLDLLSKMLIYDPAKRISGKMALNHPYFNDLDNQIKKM
T2 sequence (P14635 whole entry partner): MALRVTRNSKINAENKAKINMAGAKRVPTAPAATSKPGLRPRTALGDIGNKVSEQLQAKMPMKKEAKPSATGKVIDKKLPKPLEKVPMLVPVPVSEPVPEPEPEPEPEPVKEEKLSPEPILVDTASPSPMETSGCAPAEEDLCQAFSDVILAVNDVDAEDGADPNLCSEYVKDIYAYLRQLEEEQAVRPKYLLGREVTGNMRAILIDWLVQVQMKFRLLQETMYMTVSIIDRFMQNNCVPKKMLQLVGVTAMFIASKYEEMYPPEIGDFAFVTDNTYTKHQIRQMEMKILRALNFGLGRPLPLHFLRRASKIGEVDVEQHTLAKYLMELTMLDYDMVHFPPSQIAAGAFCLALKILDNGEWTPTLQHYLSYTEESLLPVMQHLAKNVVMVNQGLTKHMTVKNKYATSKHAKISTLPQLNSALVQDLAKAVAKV
T3 sequence (P11802 whole entry): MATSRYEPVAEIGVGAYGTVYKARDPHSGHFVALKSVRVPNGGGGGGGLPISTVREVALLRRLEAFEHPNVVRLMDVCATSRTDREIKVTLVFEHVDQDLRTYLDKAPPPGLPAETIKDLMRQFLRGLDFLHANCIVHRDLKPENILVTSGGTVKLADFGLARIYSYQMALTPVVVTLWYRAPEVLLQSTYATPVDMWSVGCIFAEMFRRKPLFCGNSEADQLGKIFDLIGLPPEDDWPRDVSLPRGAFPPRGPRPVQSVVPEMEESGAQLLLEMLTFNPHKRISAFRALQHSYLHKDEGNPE
T3 sequence (P30279 whole entry partner): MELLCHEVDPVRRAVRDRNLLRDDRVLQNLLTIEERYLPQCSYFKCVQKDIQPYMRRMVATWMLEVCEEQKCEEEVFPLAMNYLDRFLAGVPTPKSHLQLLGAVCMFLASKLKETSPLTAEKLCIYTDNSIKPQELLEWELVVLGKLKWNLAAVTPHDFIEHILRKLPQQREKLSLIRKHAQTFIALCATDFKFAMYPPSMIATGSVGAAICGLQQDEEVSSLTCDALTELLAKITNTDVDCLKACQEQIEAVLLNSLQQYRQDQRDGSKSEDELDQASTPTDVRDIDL

One may read the IC50 as the concentration needed to halve the response being measured. A low value points to inhibition by little substance. Regarding `Cc1cc(-c2cnc(Nc3cnc(CN4CCN(C)CC4)cn3)s2)nc(OC2CCCCC2)n1` [Example 1, 5-[2-(cyclohexyloxy)-6-methyl-4-pyrimidinyl]-2-[5-(4-methyl-1-piperazinyl)methyl-2-pyrazinyl]amino-1,3-thiazole], the IC50 is 1.7 µM in assay [1], 0.6 µM in assay [2] and 0.0092 µM in assay [3].

On to `Cc1cc(-c2cnc(Nc3cnc(CN4CCC(N(C)C)C4)cn3)s2)nc(OC2CCCCC2)n1` (stereo not shown) [Example 13, 5-[2-(cyclohexyloxy)-6-methyl-4-pyrimidinyl]-2-[5-(3-dimethylamino-1-pyrrolidinyl)methyl-2-pyrazinyl]amino-1,3-thiazole], for which the IC50 in assay [1] was determined as 0.85 µM; in assay [2] it was 0.62 µM; in assay [3] it was 0.006 µM.

As to `Cc1cc(-c2cnc(Nc3cnc(CN4CCN(C)CC4)cn3)s2)nc(NC2CCCCC2)n1` [Example 55, 5-[2-(cyclohexylamino)-6-methyl-4-pyrimidinyl]-2-[5-(4-methyl-1-piperazinyl)methyl-2-pyrazinyl]amino-1,3-thiazole], the concentration for half-maximal inhibition (IC50) in assay [1] was determined as 1.9 µM; in assay [2] it was 0.75 µM; in assay [3], 0.0038 µM.

As to `Cc1cc(-c2cnc(Nc3cnc(CN4CCCC4)cn3)s2)nc(SC2CCCCC2)n1` [Example 93, 5-[2-(cyclohexylthio)-6-methyl-4-pyrimidinyl]-2-[5-(1-pyrrolidinyl)methyl-2-pyrazinyl]amino-1,3-thiazole], the IC50 is 0.48 µM in assay [1], 0.87 µM in assay [2] and 0.0042 µM in assay [3].

Consider `Cc1cc(-c2cnc(Nc3cnc(CN4CCC(N(C)C)C4)cn3)s2)nc(SC2CCCCC2)n1` (stereo not shown) [Example 94, 5-[2-(cyclohexylthio)-6-methyl-4-pyrimidinyl]-2-[5-(3-dimethylamino-1-pyrrolidinyl)methyl-2-pyrazinyl]amino-1,3-thiazole], for which the values for the IC50 in assay [1], in assay [2] and in assay [3] were 1.7 µM, 0.92 µM and 0.0039 µM, respectively.

Turning to `Cc1cc(-c2cnc(Nc3cnc(CNC(C)C)cn3)s2)nc(SC2CCCCC2)n1` [Example 96, 5-[2-(cyclohexylthio)-6-methyl-4-pyrimidinyl]-2-[5-(isopropylamino)methyl-2-pyrazinyl]amino-1,3-thiazole], the half-inhibitory concentration (IC50) in assay [1] was determined as 0.6 µM; in assay [2], 0.56 µM; in assay [3], 0.0058 µM.

Compound `Cc1cc(-c2cnc(Nc3cnc(CNCCO)cn3)s2)nc(SC2CCCCC2)n1` [Example 99, 5-[2-(cyclohexylthio)-6-methyl-4-pyrimidinyl]-2-[5-(2-hydroxyethylamino)methyl-2-pyrazinyl]amino-1,3-thiazole] yielded an IC50 in assay [3] of 0.006 µM.

On to `Cc1cc(-c2cnc(Nc3cnc(CN4CCN(C)CC4)cn3)s2)nc(Sc2ccccc2Cl)n1` [Example 109, 5-[2-(2-chlorophenylthio)-6-methyl-4-pyrimidinyl]-2-[5-(4-methyl-1-piperazinyl)methyl-2-pyrazinyl]amino-1,3-thiazole], for which the results for the IC50 in assay [1], in assay [2] and in assay [3] were 1 µM, 0.43 µM and 0.0057 µM, respectively.

Consider `CC(=O)N1CCN(Cc2ccc(Nc3ncc(-c4cc(C)nc(OC5CCCCC5)n4)s3)nc2)CC1` [Example 125, 5-[2-(cyclohexyloxy)-6-methyl-4-pyrimidinyl]-2-[5-(4-acetyl-1-piperazinyl)methyl-2-pyridyl]amino-1,3-thiazole], for which the IC50 in assay [1] worked out at 1.6 µM; in assay [2], 1.2 µM; in assay [3] it was 0.009 µM.

As for `Cc1cc(-c2cnc(Nc3ccc(CN4CCC[C@H]4CO)cn3)s2)nc(NC2CCCCC2)n1` [Example 137, (2S)-5-[2-(cyclohexylamino)-6-methyl-4-pyrimidinyl]-2-[5-(2-hydroxymethyl-1-pyrrolidinyl)methyl-2-pyridyl]amino-1,3-thiazole], the values for the IC50 in assay [1], in assay [2] and in assay [3] were 4.5 µM, 1.2 µM and 0.0072 µM, respectively.

For the origin of these results see patent US7709475B2, “Selective inhibitors against Cdk4 and Cdk6 having aminothiazole skeleton” (Banyu Pharmaceutical Co., Ltd., priority 2004, dated 2010).
